Series [1] addresses T1, GSK3β-HiBiT (GSK3β-HiBiT KI HEK293 cells) (Homo sapiens, UniProt P49841).
T1 construct: we generated endogenously tagged GSK3β-HiBiT knock-in (KI) HEK293 cells; endogenous in cells; host or cells: GSK3β-HiBiT knock-in HEK293 cells (CRISPR/Cas9, single-cell clone)
As to the kind of experiment: HiBiT lytic degradation assay / high-throughput screen, 24 h. In kind it is cell-based. The following applies: 24 h treatment; for DC50: pure (resynthesised, HPLC purified) compound. How it is done: Crude compounds were assumed to be 10 mM concentration in DMSO and after generating libraries directly used in biological tests in degradation screens. Stock solutions were serially diluted into white bottom opaque 384-well plates (Perkin Elmer) using Echo500 (Labcyte) and DMSO was backfilled to maintain same DMSO content in each well for all concentrations. […] HiBiT lytic assay buffer (Promega) prepared according to the manufacturer’s instructions and added onto each well using Multidrop^TM Combi reagent dispenser. Luminescence signal was measured on PheraStar plate reader (BMG) and obtained data normalised to DMSO conditions using Excel and further analysed using GraphPad Prism (v10.1.2) and degradation curves were generated using 4-parameter non-linear regression fit to calculate DC50 and Dmax values. Data points associated with concentrations displaying a hook effect were excluded prior to DC50 and Dmax calculation.

Series [2] in a line: Intrinsic clearance (Cli), mouse liver microsomes. In kind it is in vitro ADME. The following applies: 0.5 µM, scaling factor 48 mg microsomal protein per g liver. How it is done:
(§1) Test compound (0.5 µM) was incubated with female CD1 mouse, male rat Han Wistar and pooled human liver microsomes (Xenotech^TM; 0.5 mg/mL 50 mM potassium phosphate buffer, pH7.4) and the reaction started with addition of excess NADPH (8 mg/mL 50 mM potassium phosphate buffer, pH7.4). Immediately, at time zero, then at 3, 6, 9, 15 and 30 min an aliquot (50 µL) of the incubation mixture was removed and mixed with acetonitrile (100 uL) to stop the reaction. An internal standard was added to all samples, the samples centrifuged to sediment precipitated protein and the plates then sealed prior to UPLC-MSMS analysis (Xevo TQ-S Micro, Waters^TM). XLfit (IDBS, UK) was used to calculate the exponential decay and consequently the rate constant (k) from the ratio of peak area of test compound to internal standard at each timepoint. The rate of intrinsic clearance (CLi) of each test compound was then calculated using the following calculation:1 CLi(mL/min/gliver)=kxVxMicrosomalproteinyield Where V (mL/mg protein) is the incubation volume/mg protein added and microsomal protein yield is taken as 48 mg, 46 mg and 40 mg protein/g liver for mouse, rat and human, respectively. Verapamil (0.5 µM) was used as a positive control to confirm acceptable assay performance.
For orientation: Liver microsomes are a subcellular fraction often used to study metabolism.

Series [3] in a line: Intrinsic clearance (Cli), rat liver microsomes. The following applies: 0.5 µM, scaling factor 46 mg microsomal protein per g liver. In kind it is in vitro ADME. How it is done: as §1
Series [4] can be described thus: Intrinsic clearance (Cli), human liver microsomes. The format is in vitro ADME. The following applies: 0.5 µM, scaling factor 40 mg microsomal protein per g liver. On the procedure: as §1
A short description of series [5]: Brain binding, equilibrium dialysis. As to conditions: brain tissue homogenate. In kind it is in vitro ADME. How it is done:
As for plasma protein binding experiments, 96-well equilibrium dialysis apparatus was used to determine the free fraction in brain tissue homogenate for each compound (HT Dialysis LLC, Gales Ferry, CT). Membranes (12–14 kDA cut-off) were conditioned in deionised water for 60 min, followed by conditioning in 80:20 deionised water: ethanol for 20 min, and then rinsed in isotonic buffer before use. Frozen brain tissue was thawed and homogenised in artificial CSF at a ratio of 3:1. Homogenate was then spiked with test compound (final concentration 10 μg/mL), and 150 μL aliquots (n = 6 replicate determinations) loaded into the 96-well equilibrium dialysis plate. Dialysis vs artificial CSF was carried out for 5 h in a temperature-controlled incubator at ca. 37 °C (Barworld Scientific Ltd, UK) using an orbital microplate shaker at 100 revolutions/minute (Barworld Scientific Ltd, UK). 150 μL aliquots of spiked homogenate were stored at 37 °C and 4 °C for the course of the experiment to determine recovery. At the end of the incubation period, 50 μL aliquots of homogenate or buffer were transferred to a 96 deepwell plate (Waters^TM) and the composition in each was balanced with control fluid (50 μL), such that the volume of buffer to brain homogenate is the same. Sample extraction was performed by the addition of 200 μL of acetonitrile containing an appropriate internal standard. Samples were allowed to mix for 1 min and then centrifuged at 3000 rpm in 96-well blocks for 15 min (Allegra X12-R, Beckman Coulter, USA), after which 150 μL of supernatant was removed to 50 μL of water. All samples were analysed by UPLC-MS/MS. The unbound fraction was determined as the ratio of the peak area in buffer to that in homogenate using the following equation:2 Afu=Buffer/Matrix where Afu means apparent fraction unbound
Buffer = Analyte/IS ratio in buffer side […]
The recovery of the dialysed samples was calculated by comparing the sum of the peak areas (buffer and matrix) of any test compound at 37 °C to that of the same compound at 4 °C. […]
In general terms: Equilibrium dialysis compares concentrations on both sides of a semipermeable membrane.

[6] abbreviates: HEK293, crude mixture, stock assumed 10 mM.
The mark [7] stands for this setting: HEK293, pure (resynthesised, HPLC purified) compound.
Setting [8] is: 10 μg/mL, 5 h dialysis, read-out: Brain Tissue Binding (Fu).

Read-outs that look alike come from different tables or passages of the source. A value given as a limit tells only on which side of the number the result lay.

T1 sequence (P49841 whole entry): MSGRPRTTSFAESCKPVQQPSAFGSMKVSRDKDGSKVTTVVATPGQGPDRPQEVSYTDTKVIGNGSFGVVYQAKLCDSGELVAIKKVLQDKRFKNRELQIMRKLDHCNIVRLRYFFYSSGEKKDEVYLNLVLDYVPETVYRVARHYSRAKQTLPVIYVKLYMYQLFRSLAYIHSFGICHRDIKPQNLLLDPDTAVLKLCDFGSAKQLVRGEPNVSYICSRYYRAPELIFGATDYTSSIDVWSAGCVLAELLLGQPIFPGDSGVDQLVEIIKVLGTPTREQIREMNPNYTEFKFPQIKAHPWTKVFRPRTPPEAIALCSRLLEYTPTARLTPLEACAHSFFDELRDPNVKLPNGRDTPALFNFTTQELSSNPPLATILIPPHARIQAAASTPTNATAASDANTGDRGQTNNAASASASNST

Consider `O=C1CCC(NC(=O)c2ccc(CN3CCN(Cc4ccc(-c5cn(-c6ccc(-c7cn8nccc(C(=O)Nc9cnccc9N9CCOCC9)c8n7)cc6)nn5)nc4)CC3)cn2)C(=O)N1` (centres unmarked) [compound 22], for which the Dmax (commonly the greatest extent of degradation seen) turned out to be 89% in series [1] (setting [6]) and 87% in series [1] (setting [7]). The “Scaled Microsomal Stability MuClint” value in series [2] was less than 0.53 ml/min/g liver. Also, in series [3], the “Scaled Microsomal Stability RatClint” value was 0.71 ml/min/g liver. Moreover, the “Scaled Microsomal Stability HuClint” value in series [4] is 3.6 ml/min/g liver. In addition, the fraction unbound at 5 h, 10 μg/mL in series [5] (setting [8]) was 0.0029.

For the compound `Cn1nc(N2CCC(=O)NC2=O)c2ccc(CN3CCN(Cc4ccc(-c5cn(-c6ccc(-c7cn8nccc(C(=O)Nc9cnccc9N9CCOCC9)c8n7)cc6)nn5)nc4)CC3)cc21` [compound 24], the Dmax in series [1] (setting [6]) turned out to be 91%; in series [1] (setting [7]) it was 93%. For the same compound, in series [1] (listed as KH1 (24)), the DC50 entry is listed as “picomolar to single-digit nanomolar range”. In series [2], the “Scaled Microsomal Stability MuClint” value is given as 2.4 ml/min/g liver. Moreover, the “Scaled Microsomal Stability RatClint” value in series [3] is 0.51 ml/min/g liver. For the same compound, in series [4], the “Scaled Microsomal Stability HuClint” value was determined as 0.88 ml/min/g liver. For the same compound, in series [5] (brain binding, read-out: measured free fraction in brain), the fraction unbound at 5 h, 10 μg/mL stood at 0.0012.

On to `Cn1nc(N2CCC(=O)NC2=O)c2ccc(CN3CCN(CCCc4cn(-c5ccc(-c6cn7nccc(C(=O)Nc8cnccc8N8CCOCC8)c7n6)cc5)nn4)CC3)cc21` [compound 26], for which the maximal degradation (Dmax) in series [1] (setting [6]) turned out to be 78%; in series [1] (setting [7]), 80%. The DC50 result in series [1] (listed as KH2 (26)) is “picomolar to single-digit nanomolar range”. Further, in series [2], the “Scaled Microsomal Stability MuClint” value came to 4.0 ml/min/g liver. Moreover, in series [3], the “Scaled Microsomal Stability RatClint” value is on record as 1.3 ml/min/g liver. Also, the “Scaled Microsomal Stability HuClint” value in series [4] was 1.6 ml/min/g liver. For the same compound, the fraction unbound at 5 h, 10 μg/mL in series [5] (setting [8]) came to 0.012.

Values taken from PMC12501029, “Discovery of a CNS active GSK3 degrader using orthogonally reactive linker screening” (Nature Communications, 2025).
